Legend:
[1] = test system: IGROV1; assay: NCI 60-cell line growth inhibition assay; assay type: cell-based; conditions: Homo sapiens, IGROV-1; Ovarian, IGROV1
[2] = test system: Tumor Cells in Hollow Fibers; assay: NCI Hollow Fiber Assay (in vivo evaluation)
[3] = test system: SNB-19; assay: NCI 60-cell line growth inhibition assay; assay type: cell-based; conditions: Homo sapiens; CNS, SNB-19
[4] = test system: A549/ATCC; assay: NCI 60-cell line growth inhibition assay; assay type: cell-based; conditions: Homo sapiens; Non-Small Cell Lung, A549/ATCC
[5] = test system: UO-31; assay: NCI 60-cell line growth inhibition assay; assay type: cell-based; conditions: Homo sapiens; Renal, UO-31
[6] = test system: RXF 393; assay: NCI 60-cell line growth inhibition assay; assay type: cell-based; conditions: Homo sapiens; Renal, RXF 393
[7] = test system: HCT-15; assay: NCI 60-cell line growth inhibition assay; assay type: cell-based; conditions: Homo sapiens; Colon, HCT-15
[8] = test system: NCI-H322M; assay: NCI 60-cell line growth inhibition assay; assay type: cell-based; conditions: Homo sapiens; Non-Small Cell Lung, NCI-H322M
[9] = test system: NCI-H460; assay: NCI 60-cell line growth inhibition assay; assay type: cell-based; conditions: Homo sapiens; Non-Small Cell Lung, NCI-H460
[10] = test system: MOLT-4; assay: NCI 60-cell line growth inhibition assay; assay type: cell-based; conditions: Homo sapiens; Leukemia, MOLT-4
[11] = test system: COLO 205; assay: NCI 60-cell line growth inhibition assay; assay type: cell-based; conditions: Homo sapiens; Colon, COLO 205
[12] = test system: T-47D; assay: NCI 60-cell line growth inhibition assay; assay type: cell-based; conditions: Homo sapiens, T47D; Breast, T-47D
[13] = test system: M14; assay: NCI 60-cell line growth inhibition assay; assay type: cell-based; conditions: Homo sapiens; Melanoma, M14
[14] = test system: LOX IMVI; assay: NCI 60-cell line growth inhibition assay; assay type: cell-based; conditions: Homo sapiens; Melanoma, LOX IMVI
[15] = test system: SK-OV-3; assay: NCI 60-cell line growth inhibition assay; assay type: cell-based; conditions: Homo sapiens; Ovarian, SK-OV-3
[16] = test system: OVCAR-5; assay: NCI 60-cell line growth inhibition assay; assay type: cell-based; conditions: Homo sapiens; Ovarian, OVCAR-5
[17] = test system: HT29; assay: NCI 60-cell line growth inhibition assay; assay type: cell-based; conditions: Homo sapiens, HT-29; Colon, HT29
[18] = test system: SK-MEL-2; assay: NCI 60-cell line growth inhibition assay; assay type: cell-based; conditions: Homo sapiens; Melanoma, SK-MEL-2
[19] = test system: UACC-62; assay: NCI 60-cell line growth inhibition assay; assay type: cell-based; conditions: Homo sapiens; Melanoma, UACC-62
[20] = test system: MDA-MB-231/ATCC; assay: NCI 60-cell line growth inhibition assay; assay type: cell-based; conditions: Homo sapiens; Breast, MDA-MB-231/ATCC
[21] = test system: ACHN; assay: NCI 60-cell line growth inhibition assay; assay type: cell-based; conditions: Homo sapiens; Renal, ACHN
[22] = test system: MDA-MB-435; assay: NCI 60-cell line growth inhibition assay; assay type: cell-based; conditions: Homo sapiens; Breast, MDA-MB-435
[23] = test system: SK-MEL-28; assay: NCI 60-cell line growth inhibition assay; assay type: cell-based; conditions: Homo sapiens; Melanoma, SK-MEL-28
[24] = test system: TK-10; assay: NCI 60-cell line growth inhibition assay; assay type: cell-based; conditions: Homo sapiens; Renal, TK-10
[25] = test system: SW-620; assay: NCI 60-cell line growth inhibition assay; assay type: cell-based; conditions: Homo sapiens; Colon, SW-620
[26] = test system: K-562; assay: NCI 60-cell line growth inhibition assay; assay type: cell-based; conditions: Homo sapiens, K562; Leukemia, K-562
[27] = MTD (NCI in vivo evaluation, Table 8); conditions: mouse
[28] = test system: U251; assay: NCI 60-cell line growth inhibition assay; assay type: cell-based; conditions: Homo sapiens, U-251; CNS, U251
[29] = test system: CCRF-CEM; assay: NCI 60-cell line growth inhibition assay; assay type: cell-based; conditions: Homo sapiens; Leukemia, CCRF-CEM
[30] = test system: EKVX; assay: NCI 60-cell line growth inhibition assay; assay type: cell-based; conditions: Homo sapiens; Non-Small Cell Lung, EKVX
[31] = test system: OVCAR-8; assay: NCI 60-cell line growth inhibition assay; assay type: cell-based; conditions: Homo sapiens; Ovarian, OVCAR-8
[32] = test system: MCF7; assay: NCI 60-cell line growth inhibition assay; assay type: cell-based; conditions: Homo sapiens; Breast, MCF7
[33] = test system: UACC-257; assay: NCI 60-cell line growth inhibition assay; assay type: cell-based; conditions: Homo sapiens; Melanoma, UACC-257
[34] = test system: HCC-2998; assay: NCI 60-cell line growth inhibition assay; assay type: cell-based; conditions: Homo sapiens; Colon, HCC-2998
[35] = test system: CAKI-1; assay: NCI 60-cell line growth inhibition assay; assay type: cell-based; conditions: Homo sapiens; Renal, CAKI-1
[36] = test system: MALME-3M; assay: NCI 60-cell line growth inhibition assay; assay type: cell-based; conditions: Homo sapiens; Melanoma, MALME-3M
[37] = test system: PC-3; assay: NCI 60-cell line growth inhibition assay; assay type: cell-based; conditions: Homo sapiens; Prostate, PC-3
[38] = test system: SF-268; assay: NCI 60-cell line growth inhibition assay; assay type: cell-based; conditions: Homo sapiens; CNS, SF-268
[39] = test system: SF-295; assay: NCI 60-cell line growth inhibition assay; assay type: cell-based; conditions: Homo sapiens; CNS, SF-295
[40] = test system: OVCAR-3; assay: NCI 60-cell line growth inhibition assay; assay type: cell-based; conditions: Homo sapiens; Ovarian, OVCAR-3
[41] = test system: HeLa S-3 cells; assay: Inhibition of cell growth of HeLa cells (SRB); assay type: cell-based, human; conditions: Homo sapiens, HeLa S3, 48 h, 2 days of treatment, replicate experiments
[42] = test system: SR; assay: NCI 60-cell line growth inhibition assay; assay type: cell-based; conditions: Homo sapiens; Leukemia, SR
[43] = test system: HL-60(TB); assay: NCI 60-cell line growth inhibition assay; assay type: cell-based; conditions: Homo sapiens; Leukemia, HL-60(TB)
[44] = test system: KM12; assay: NCI 60-cell line growth inhibition assay; assay type: cell-based; conditions: Homo sapiens; Colon, KM12

CC[C@H](CO)Nc1nc(NCc2ccc(-c3cccc(C(F)(F)F)c3)cc2)c2ncn(C(C)C)c2n1 [Compound 38]
GI50 [1]: 0.16 µM
IP Score ([2]; IP fibers): 0
SC score ([2]; SC fibers): 4
GI50 [3]: 0.5 µM
GI50 [4]: 0.13 µM
GI50 [5]: 0.13 µM
GI50 [6]: 0.13 µM
GI50 [7]: 0.25 µM
GI50 [8]: 0.4 µM
GI50 [9]: 3.16 µM
GI50 [10]: 0.25 µM
GI50 [11]: 0.16 µM
GI50 [12]: 0.25 µM
GI50 [13]: 0.05 µM
GI50 [14]: 0.4 µM
GI50 [15]: 3.98 µM
GI50 [16]: 0.4 µM
GI50 [17]: 0.25 µM
GI50 [18]: 2 µM
GI50 [19]: 1 µM
GI50 [20]: 0.06 µM
GI50 [21]: 2 µM
GI50 [22]: 0.05 µM
GI50 [23]: 0.03 µM
GI50 [24]: 0.4 µM
GI50 [25]: 0.03 µM
GI50 [26]: 0.25 µM
MTD [27]: 100 mg/kg
GI50 [28]: 0.2 µM
GI50 [29]: 0.2 µM
GI50 [30]: 0.2 µM
GI50 [31]: 0.25 µM
GI50 [32]: 0.2 µM
GI50 [33]: 0.5 µM
GI50 [34]: 7.94 µM
GI50 [35]: 0.2 µM
GI50 [36]: 0.25 µM
GI50 [37]: 0.4 µM
GI50 [38]: 0.2 µM
GI50 [39]: 0.5 µM
GI50 [40]: 1 µM
GI50 [41]: 0.6 µM
GI50 [42]: 3.98 µM
GI50 [43]: 0.04 µM
GI50 [44]: 0.16 µM
